Reference: patent US12637425B2, “Compounds and formulations for treating ophthalmic diseases” (Visus Therapeutics, Inc., priority 2020, dated 2026)

Biological target: T1, Recombinant cryAB(R120G) protein (Homo sapiens, UniProt P02511, R120G)
T1 sequence (P02511 1-175 R120G): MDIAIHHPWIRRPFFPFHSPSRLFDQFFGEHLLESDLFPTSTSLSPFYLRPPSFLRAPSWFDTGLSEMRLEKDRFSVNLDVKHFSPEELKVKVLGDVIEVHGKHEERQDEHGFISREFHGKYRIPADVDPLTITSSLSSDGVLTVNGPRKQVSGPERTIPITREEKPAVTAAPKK
Assay: Kinetic turbidity aggregation assay of recombinant cryAB(R120G)
Type: biochemical
Conditions: for inhibition at 25 µM: read-out: % Inhibition of Protein Aggregation, 25 μM cmpd; for inhibition at 100 µM: 100 μM compound, read-out: % Inhibition of Protein Aggregation, 100 μM cmpd; for inhibition at 400 µM: 400 μM compound, read-out: % Inhibition of Protein Aggregation, 400 μM cmpd; for IC50: inhibition of cryAB(R120G) protein aggregation
Description: Example A-1: Kinetic Turbidity Aggregation Assay of Recombinant cryAB(R120)
Recombinant cryAB(R120G) protein was diluted to 100 μM in assay buffer (50 mM Tris, 100 mM NaCl, 5 mM DTT, 0.01% Triton X-100, 0.05% PEG-8000). Compounds were dissolved in DMSO at 10 mM then typically diluted to 2.5 mM in DMSO and serially diluted 2-fold as necessary. To a 384-well black microplate in quadruplicate was added 81 μL assay buffer, followed by 15 μL protein solution, and 4 μL compound to give a final concentration of 15 μM cryAB(R120G) protein in 4% DMSO. […] N.D. is not determined.

[1] = 25 μM compound, 15 μM cryAB(R120G), 42° C., absorbance at 550 nm
[2] = 15 μM cryAB(R120G), 42° C., absorbance at 550 nm

| inhibition at 25 µM [1] | inhibition at 100 µM [2] | % Inhibition of Protein Aggregation, 25 μM cmpd [1] | inhibition at 400 µM [2] | IC50 | Structure (SMILES) |
| --- | --- | --- | --- | --- | --- |
| -28% | 82% |  |  |  | Cn1cc(C(CNS(=O)(=O)c2ccc3cc[nH]c3c2)N2CCOCC2)c2ccccc21 (centres unmarked) [Compound 30, N-(2-(1-methyl-1H-indol-3-yl)-2-morpholinoethyl)-1H-indole-6-sulfonamide] |
| 16% | 38% |  |  |  | Cn1cc([C@@H](CNS(=O)(=O)c2ccc3cc[nH]c3c2)N2CCCC2)c2ccncc21 [Compound 82, (S)-N-(2-(1-methyl-1H-pyrrolo[2,3-c]pyridin-3-yl)-2-(pyrrolidin-1-yl)ethyl)-1H-indole-6-sulfonamide] |
|  | 85% | −35% |  |  | Cn1cc(C(CNS(=O)(=O)c2cccc3[nH]ccc23)N2CCCC2)c2ccccc21 (centres unmarked) [Compound 27, N-(2-(1-methyl-1H-indol-3-yl)-2-(pyrrolidin-1-yl)ethyl)-1H-indole-4-sulfonamide] |
| 1% | 66.7% |  |  |  | Cn1cc([C@H](CNS(=O)(=O)c2ccc3cc[nH]c3c2)N2CC[C@H](c3ccccc3)C2)c2ccccc21 [Compound 61, N-((R)-2-(1-methyl-1H-indol-3-yl)-2-((R)-3-phenylpyrrolidin-1-yl)ethyl)-1H-indole-6-sulfonamide] |
| 99.6% | 99.8% |  | 97.9% | ≤ 10 µM | Cn1cc(C(CNS(=O)(=O)c2ccc3cc[nH]c3c2)N2CCCC2)c2ccccc21 (centres unmarked) [Compound 5, N-(2-(1-methyl-1H-indol-3-yl)-2-(pyrrolidin-1-yl)ethyl)-1H-indole-6-sulfonamide] |
| -10% | 42% |  |  |  | Cn1cc([C@@H](CNS(=O)(=O)c2ccc3cc[nH]c3c2)N2CCCC2)c2cccnc21 [Compound 66, (S)-N-(2-(1-methyl-1H-pyrrolo[2,3-b]pyridin-3-yl)-2-(pyrrolidin-1-yl)ethyl)-1H-indole-6-sulfonamide] |
| 88% | 100% |  |  |  | C[C@@H]1CCN([C@@H](CNS(=O)(=O)c2ccc3cc[nH]c3c2)c2cn(C)c3ccccc23)C1 [Compound 77, N-((R)-2-(1-methyl-1H-indol-3-yl)-2-((R)-3-methylpyrrolidin-1-yl)ethyl)-1H-indole-6-sulfonamide] |
| -21% | -32% |  | 56.6% |  | CN(C)C(CNS(=O)(=O)c1ccc2cn[nH]c2c1)c1cn(C)c2ccccc12 (centres unmarked) [Compound 7, N-(2-(dimethylamino)-2-(1-methyl-1H-indol-3-yl)ethyl)-1H-indazole-6-sulfonamide] |
| 1% | 26% |  |  |  | Cn1cc([C@H](CNS(=O)(=O)c2ccc3cc[nH]c3c2)N2CCCC2)c2ccncc21 [Compound 83, (R)-N-(2-(1-methyl-1H-pyrrolo[2,3-c]pyridin-3-yl)-2-(pyrrolidin-1-yl)ethyl)-1H-indole-6-sulfonamide] |
| 63% | 99.3% |  |  |  | CN(C)C(CNS(=O)(=O)c1ccc2cc[nH]c2c1)c1cn(CC#N)c2ccccc12 (centres unmarked) [Compound 71, N-(2-(1-(cyanomethyl)-1H-indol-3-yl)-2-(dimethylamino)ethyl)-1H-indole-6-sulfonamide] |
| 40% | 99.9% |  |  |  | CO[C@@H]1CCN([C@H](CNS(=O)(=O)c2ccc3cc[nH]c3c2)c2cn(C)c3ccccc23)C1 [Compound 74, N-((S)-2-((R)-3-methoxypyrrolidin-1-yl)-2-(1-methyl-1H-indol-3-yl)ethyl)-1H-indole-6-sulfonamide] |
| 95% | 94.1% |  |  | ≤ 10 µM | Cn1cc(C(CNS(=O)(=O)c2ccc3cc[nH]c3c2)NCc2ccccc2)c2ccccc21 (centres unmarked) [Compound 50, N-(2-(benzylamino)-2-(1-methyl-1H-indol-3-yl)ethyl)-1H-indole-6-sulfonamide] |
| 66.7% | 62.8% |  | 91.8% |  | CN1CCN(S(=O)(=O)c2ccc3cc[nH]c3c2)CC1c1cn(C)c2ccccc12 (centres unmarked) [Compound 4, 3-(4-((1H-indol-6-yl)sulfonyl)-1-methylpiperazin-2-yl)-1-methyl-1H-indole] |
| 76% | 99.6% |  |  |  | CN(C)C(CNS(=O)(=O)c1ccc2cc[nH]c2c1)c1cn(CC2COC2)c2ccccc12 (centres unmarked) [Compound 70, N-(2-(dimethylamino)-2-(1-(oxetan-3-ylmethyl)-1H-indol-3-yl)ethyl)-1H-indole-6-sulfonamide] |
| -39% | 53.1% |  |  |  | CC(=O)N[C@@H]1CCN(C(CNS(=O)(=O)c2ccc3cc[nH]c3c2)c2cn(C)c3ccccc23)C1 (stereo partly drawn) [Compound 62, N-((3R)-1-(2-(1H-indole-6-sulfonamido)-1-(1-methyl-1H-indol-3-yl)ethyl)pyrrolidin-3-yl)acetamide] |
| 99.6% | 99.9% |  |  | ≤ 10 µM | C[C@@H]1CCCN1[C@H](CNS(=O)(=O)c1ccc2cc[nH]c2c1)c1cn(C)c2ccccc12 [Compound 53, N-((S)-2-(1-methyl-1H-indol-3-yl)-2-((R)-2-methylpyrrolidin-1-yl)ethyl)-1H-indole-6-sulfonamide] |
| 98.4% | 99.7% |  |  | ≤ 10 µM | Cn1nc([C@@H](CNS(=O)(=O)c2ccc3cc[nH]c3c2)N2CCCC2)c2ccccc21 [Compound 89, (R)-N-(2-(1-methyl-1H-indazol-3-yl)-2-(pyrrolidin-1-yl)ethyl)-1H-indole-6-sulfonamide] |
| 91% | 96.2% |  |  | ≤ 10 µM | CN(C)C(CNS(=O)(=O)c1ccc2cc[nH]c2c1)c1cn(C)c2ccc(Cl)cc12 (centres unmarked) [Compound 42, N-(2-(5-chloro-1-methyl-1H-indol-3-yl)-2-(dimethylamino)ethyl)-1H-indole-6-sulfonamide] |
| 47% | 99.2% |  |  | 10 to 50 µM | Cn1cc(C(CNS(=O)(=O)c2ccc3cc[nH]c3c2)Nc2ccncc2)c2ccccc21 (centres unmarked) [Compound 49, N-(2-(1-methyl-1H-indol-3-yl)-2-(pyridin-4-ylamino)ethyl)-1H-indole-6-sulfonamide] |
| 76% | 99.8% |  | 90.7% |  | Cc1ccc2c(c1)c(C(CNS(=O)(=O)c1ccc3cc[nH]c3c1)N(C)C)cn2C (centres unmarked) [Compound 21, N-(2-(1,5-dimethyl-1H-indol-3-yl)-2-(dimethylamino)ethyl)-1H-indole-6-sulfonamide] |
| 57% | 94.9% |  |  |  | Cn1cc([C@@H](CNS(=O)(=O)c2ccc3cc[nH]c3c2)N2CC[C@H](c3ccccc3)C2)c2ccccc21 [Compound 60, N-((S)-2-(1-methyl-1H-indol-3-yl)-2-((R)-3-phenylpyrrolidin-1-yl)ethyl)-1H-indole-6-sulfonamide] |
| -19% | 41.7% |  |  |  | CC(=O)N[C@H]1CCN(C(CNS(=O)(=O)c2ccc3cc[nH]c3c2)c2cn(C)c3ccccc23)C1 (stereo partly drawn) [Compound 35, N-((3S)-1-(2-(1H-indole-6-sulfonamido)-1-(1-methyl-1H-indol-3-yl)ethyl)pyrrolidin-3-yl)acetamide] |
| 95% | 69.3% |  |  |  | Cn1cc(C(CNS(=O)(=O)c2ccc3cc[nH]c3c2)N2CC[C@@H](F)C2)c2ccccc21 (stereo partly drawn) [Compound 45, N-(2-((R)-3-fluoropyrrolidin-1-yl)-2-(1-methyl-1H-indol-3-yl)ethyl)-1H-indole-6-sulfonamide] |
| 82% | 99.7% |  |  | ≤ 10 µM | Cn1cc(C(CNS(=O)(=O)c2ccc3cc[nH]c3c2)N2CC[C@@H](O)C2)c2ccccc21 (stereo partly drawn) [Compound 44, N-(2-((R)-3-hydroxypyrrolidin-1-yl)-2-(1-methyl-1H-indol-3-yl)ethyl)-1H-indole-6-sulfonamide] |
| 28% | 85.1% |  |  |  | C[C@@H]1CCN([C@H](CNS(=O)(=O)c2ccc3cc[nH]c3c2)c2cn(C)c3ccccc23)C1 [Compound 76, N-((S)-2-(1-methyl-1H-indol-3-yl)-2-((R)-3-methylpyrrolidin-1-yl)ethyl)-1H-indole-6-sulfonamide] |
| 34% | 73.3% |  |  |  | Cn1cc([C@H](CNS(=O)(=O)c2ccc3cc[nH]c3c2)N2CCCC2)c2cccnc21 [Compound 67, (R)-N-(2-(1-methyl-1H-pyrrolo[2,3-b]pyridin-3-yl)-2-(pyrrolidin-1-yl)ethyl)-1H-indole-6-sulfonamide] |
| -37% | -29% |  | 74.3% |  | CN(C)C(CNS(=O)(=O)c1ccc2ccn(C)c2c1)c1cn(C)c2ccccc12 (centres unmarked) [Compound 8, N-(2-(dimethylamino)-2-(1-methyl-1H-indol-3-yl)ethyl)-1-methyl-1H-indole-6-sulfonamide] |
| 23% | 99.6% |  |  |  | O=S(=O)(NC[C@H](c1cnc2ccccn12)N1CCCC1)c1ccc2cc[nH]c2c1 [Compound 78, (R)-N-(2-(imidazo[1,2-a]pyridin-3-yl)-2-(pyrrolidin-1-yl)ethyl)-1H-indole-6-sulfonamide] |
